Test results taken from US9034886B2, “4-aminoquinazoline derivatives and uses thereof” (Shanghai Institute of Pharmaceutical Industry, priority 2011, dated 2015).

Tests used:
[1] = system: HDACs; assay: In vitro inhibition of HDACs (HDAC Inhibitor Drug Screening Kit, Biovision K340-100); format: biochemical; conditions: for inhibitory activity on HDACs compared with MS-275: concentrations of 2 mM, 200 μM, and 40 μM
Procedure: The in vitro inhibitory activities of the compounds towards HDACs were tested according to the instructions in the HDAC Inhibitor Drug Screening Kit (Biovision/Catalog #K340-100).
(1) The compounds to be tested were each individually prepared as 2 mM, 200 μM and 40 μM solutions and their inhibitory activities at these concentrations were tested.

[2] = system: Jurkat E6-1 human T-cell lymphoma; assay: In vitro anti-proliferative effect, CCK-8 method, Jurkat E6-1; format: cell-based; conditions: Homo sapiens, Jurkat E6.1
In short: (§1)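 Cells exposed to compound at 10 μM or 100 μM; CCK-8 assay then used to derive inhibition percentages.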

[3] = system: MDA-MB-435s human breast cancer cells; assay: In vitro anti-proliferative effect, CCK-8 method, MDA-MB-435s; format: cell-based; conditions: Homo sapiens, MDA-MB-435S
In short: as §1

[4] = system: A549 human lung cancer cells; assay: In vitro anti-proliferative effect, CCK-8 method, A549; format: cell-based; conditions: Homo sapiens, A549
In short: as §1

[5] = system: Colo320 human colorectal cancer cell lines; assay: In vitro anti-proliferative effect, CCK-8 method, Colo320; format: cell-based; conditions: Homo sapiens, COLO 320; for inhibition at 10 µM / inhibition at 100 µM: Colo320 cell strain, CCK-8 method; for inhibition at 10 µM: compound at 10 μM; for inhibition at 100 µM: compound at 100 μM
In short: as §1

[6] = Maximum tolerance dose through intragastrical administration; format: in vivo; conditions: mice, administrated intragastrically
Procedure: Forty ICR mice, half female and half male, weighing […] were divided into four groups, 10 mice in each group. After the mice were fasted for 6 h, the compound to be tested was administrated intragastrically to each group at a volume of 0.3 ml/10 g by using a sterile plastic syringe. General physical signs and the deaths of the animals were record at 1, 2 and 4 h after the administration. The animals were then observed continuously for 14 days and their weights, physical signs and deaths were observed and recorded every day. Dead animals were dissected to see if there was any visible pathological change in the animal's viscera and pathological examination was performed on suspicious tissues and organs. A part of the experimental results is as follows.

[7] = system: K562 human chronic myelogenous leukemia cells; assay: In vitro anti-proliferative effect, CCK-8 method, K562; format: cell-based; conditions: Homo sapiens, K562
In short: (§2)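 K562 and Hut78 cells exposed to compounds at 100 μM and 10 μM. Percent inhibition of proliferation determined by CCK-8 read-out.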

[8] = system: PC-3 human prostate cancer; assay: In vitro anti-proliferative effect, CCK-8 method, PC-3; format: cell-based; conditions: Homo sapiens; for inhibition at 10 µM / inhibition at 100 µM: PC-3 cell strain, CCK-8 method; for inhibition at 10 µM: compound at 10 μM; for inhibition at 100 µM: compound at 100 μM
In short: as §1

[9] = system: Hep3B2.1-7 human liver cancer cells; assay: In vitro anti-proliferative effect, CCK-8 method, Hep3B; format: cell-based; conditions: Homo sapiens; for inhibition at 10 µM / inhibition at 100 µM: Hep3B cell strain, CCK-8 method; for inhibition at 10 µM: compound at 10 μM; for inhibition at 100 µM: compound at 100 μM
In short: as §1

[10] = system: Hut78 T lymphocytic leukemia cells; assay: In vitro anti-proliferative effect, CCK-8 method, Hut78; format: cell-based; conditions: Homo sapiens, HuT78; for inhibition at 10 µM / inhibition at 100 µM: read-out: Hut-78 (inhibition %)
In short: as §2

[11] = biological target: HDAC1 (Homo sapiens (Human), UniProt Q13547); assay: In vitro inhibition of subtype HDAC1 (HDAC1 Inhibitor Drug Screening Kit, Biovision); format: biochemical; conditions: for inhibition at 1 µM / inhibition at 10 µM: read-out: % Inhibition towards HDAC1; for inhibitory activity against HDAC1 compared with MS-275: both concentrations 10 μM and 1 μM
Procedure: The in vitro inhibitory activities of the compounds towards the subtype HDAC1 were tested according to the instructions in the HDAC1 Inhibitor Drug Screening Kit (Biovision).
(1) The compounds to be tested were each individually prepared as 10 μM and 1 μM solutions and their inhibitory activities at these concentrations were tested.
Each dilution sample was placed in two wells and the enzyme inhibition IC50 of the compound was tested.

[12] = system: PANC-1 human pancreatic cancer cells; assay: In vitro anti-proliferative effect, CCK-8 method, PANC-1; format: cell-based; conditions: Homo sapiens, PANC-1
In short: as §1

Chain of HDAC1 (Q13547 whole entry): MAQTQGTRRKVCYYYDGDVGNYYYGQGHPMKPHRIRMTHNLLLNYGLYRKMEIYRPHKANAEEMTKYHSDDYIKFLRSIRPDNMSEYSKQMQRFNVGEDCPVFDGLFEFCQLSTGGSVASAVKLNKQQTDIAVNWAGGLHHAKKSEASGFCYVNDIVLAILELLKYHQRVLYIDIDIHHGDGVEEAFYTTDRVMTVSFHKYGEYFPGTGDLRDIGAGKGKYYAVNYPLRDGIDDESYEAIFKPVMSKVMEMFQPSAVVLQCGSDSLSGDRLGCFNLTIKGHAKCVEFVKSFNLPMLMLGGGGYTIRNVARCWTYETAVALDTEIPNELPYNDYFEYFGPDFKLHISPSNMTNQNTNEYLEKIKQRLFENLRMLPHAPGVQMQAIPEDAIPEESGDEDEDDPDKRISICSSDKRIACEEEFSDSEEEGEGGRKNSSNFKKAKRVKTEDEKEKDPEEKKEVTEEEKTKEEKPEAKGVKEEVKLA

Structure (SMILES) | IC50 [1] | Inhibition percentage (%) towards HDACs ([1]; 40 μM) | Inhibition percentage (%) towards HDACs ([1]; 200 μM) | Inhibition percentage (%) towards HDACs ([1]; 2 mM) | inhibition at 10 µM [2] | inhibition at 100 µM [2] | inhibition at 10 µM [3] | inhibition at 100 µM [3] | inhibition at 10 µM [4] | inhibition at 100 µM [4] | inhibition at 10 µM [5] | inhibition at 100 µM [5] | maximum tolerance dose [6] | inhibition at 10 µM [7] | inhibition at 100 µM [7] | inhibition at 10 µM [8] | inhibition at 100 µM [8] | inhibition at 10 µM [9] | inhibition at 100 µM [9] | inhibition at 10 µM [10] | further results
COc1ccc2ncnc(Nc3ccc(C(=O)Nc4cc(F)ccc4N)cc3)c2c1 [Compound V-6, N-(2-amino-5-fluorophenyl)-4-(6-methoxyquinazoline-4-amino)benzamide] | 1.83 µM | 34.5% | 58.0% | 87.1% | 27.2% | 93.3% | 8% | 79.1% | -16.9% | 45.7% | -5.5% | 59.2% | over 5000 mg/kg | 53.6% | 87.2% | 23.7% | 56% | -7% | 57.5% | 15.5% | inhibitory activity according to in vitro IC50 value against HDACs compared with MS-275 [1]: better inhibitory activities than MS-275; inhibitory activity on HDACs compared with MS-275 [1]: significantly stronger inhibitory activities than MS-275; inhibition at 100 µM [10]: 66.6%; inhibition at 1 µM [11]: 6.47%; inhibition at 10 µM [11]: 50.1%; inhibition at 10 µM [12]: 16.9%; inhibition at 100 µM [12]: 19.7%
Nc1ccccc1NC(=O)c1ccc(Nc2ncnc3ccc([N+](=O)[O-])cc23)cc1 [Compound V-11, N-(2-aminophenyl)-4-(6-nitroquinazoline-4-amino)benzamide] | 3.11 µM | 4.1% | 11.1% | 49.0% | 18.6% | 26.3% | 30.6% | 42.4% | 15.3% | 12.9% | 2.6% | 4.1% | over 2000 mg/kg | 20.4% | 32.3% | 21.9% | 18.8% | 22.3% | 43% | 28.5% | inhibitory activity according to in vitro IC50 value against HDACs compared with MS-275 [1]: better inhibitory activities than MS-275; inhibition at 100 µM [10]: 84.6%; inhibition at 1 µM [11]: 26.2%; inhibition at 10 µM [11]: 33.4%; inhibition at 10 µM [12]: 24%; inhibition at 100 µM [12]: 21.1%
Nc1ccccc1NC(=O)c1ccc(Nc2ncnc3cc(F)ccc23)cc1 [Compound V-13, N-(2-aminophenyl)-4-(7-fluoroquinazoline-4-amino)benzamide] | 1.14 µM | 1.0% | 20.1% | 50.0% | 19.1% | 77.8% | 27.5% | 89.1% | 18.3% | 57.1% | 0.9% | 34.3% | over 5000 mg/kg | 25% | 65.1% | -1.9% | 48.5% | 21.5% | 69.8% | 19.8% | inhibition at 100 µM [10]: 54%; inhibition at 1 µM [11]: 53.1%; inhibition at 10 µM [11]: 83%; inhibitory activity against HDAC1 compared with MS-275 [11]: superior to that of MS-275; inhibition at 10 µM [12]: 26%; inhibition at 100 µM [12]: 36.8%
Nc1ccc(F)cc1NC(=O)c1ccc(Nc2ncnc3c(F)cccc23)cc1 [Compound V-14, N-(2-amino-5-fluorophenyl)-4-(8-fluoroquinazoline-4-amino)benzamide] | 3.77 µM | 46.8% | 67.1% | 94.8% | 23.8% | 96.5% | 19.5% | 63.9% | -17.6% | 72.2% | -14.3% | 82.7% | over 2000 mg/kg | 34% | 88.7% | 22.9% | 84.4% | 7.2% | 79.3% | 22% | inhibitory activity according to in vitro IC50 value against HDACs compared with MS-275 [1]: better inhibitory activities than MS-275; inhibitory activity on HDACs compared with MS-275 [1]: significantly stronger inhibitory activities than MS-275; IC50 [2]: 1.39 µM; IC50 [4]: 5.09 µM; IC50 [5]: 27 µM; IC50 [7]: 2.81 µM; IC50 [8]: 3.57 µM; IC50 ([9]; Hep3B): 16 µM; IC50 [10]: 0.0558 µM; inhibition at 100 µM [10]: 91.1%; inhibition at 1 µM [11]: 1.48%; inhibition at 10 µM [11]: 28.9%; inhibition at 10 µM [12]: -2.8%; inhibition at 100 µM [12]: 15.7%
COc1cc2ncnc(Nc3ccc(C(=O)Nc4ccccc4N)cc3)c2cc1OCCCN1CCOCC1 [Compound V-17, N-(2-aminophenyl)-4-[7-methoxy-6-(3-morpholinylpropoxy)quinazoline-4-amino]benzamide] | 1.72 µM | 39.7% | 60.7% | 86.7% | 20.3% | 80.2% | 32.5% | 73.3% | 29.8% | 67.9% | 4.9% | 28.9% | over 5000 mg/kg | 33.6% | 72.4% | 41.8% | 67.1% | 18.4% | 45.7% | 73.4% | inhibitory activity according to in vitro IC50 value against HDACs compared with MS-275 [1]: better inhibitory activities than MS-275; inhibitory activity on HDACs compared with MS-275 [1]: significantly stronger inhibitory activities than MS-275; inhibition at 100 µM [10]: 93.5%; IC50 [11]: 0.735 µM; inhibition at 1 µM [11]: 53.9%; inhibition at 10 µM [11]: 76.2%; inhibitory activity against HDAC1 compared with MS-275 [11]: superior to that of MS-275; inhibition at 10 µM [12]: 12%; inhibition at 100 µM [12]: 25.1%
COc1cc2ncnc(Nc3ccc(C(=O)Nc4cc(F)ccc4N)cc3)c2cc1OCCCN1CCOCC1 [Compound V-18, N-(2-amino-5-fluorophenyl)-4-[7-methoxy-6-(3-morpholinylpropoxy)quinazoline-4-amino]benzamide] | 1.02 µM | 30.4% | 56.8% | 66.0% | 76.6% | 95.7% | 22.7% | 81.4% | 9.5% | 79.1% | 7.7% | 56.3% | over 2000 mg/kg | 58.5% | 87.5% | 45.2% | 72.2% | 13.8% | 75.1% | 39.9% | inhibition at 100 µM [10]: 82.3%; IC50 [11]: 0.33 µM; inhibition at 1 µM [11]: 59.8%; inhibition at 10 µM [11]: 80.8%; inhibitory activity against HDAC1 compared with MS-275 [11]: superior to that of MS-275; inhibition at 10 µM [12]: 0.9%; inhibition at 100 µM [12]: 23.9%
